# ChEMBL document CHEMBL1143116, “Synthesis and biological evaluation of 5-(pyridin-2-yl)thiazoles as transforming growth factor-beta type1 receptor kinase inhibitors” (Bioorg Med Chem Lett, 2008)
# Biological target: T1, TGF-beta receptor type-1 (Homo sapiens) (UniProt P36897)
# T1 sequence (whole entry): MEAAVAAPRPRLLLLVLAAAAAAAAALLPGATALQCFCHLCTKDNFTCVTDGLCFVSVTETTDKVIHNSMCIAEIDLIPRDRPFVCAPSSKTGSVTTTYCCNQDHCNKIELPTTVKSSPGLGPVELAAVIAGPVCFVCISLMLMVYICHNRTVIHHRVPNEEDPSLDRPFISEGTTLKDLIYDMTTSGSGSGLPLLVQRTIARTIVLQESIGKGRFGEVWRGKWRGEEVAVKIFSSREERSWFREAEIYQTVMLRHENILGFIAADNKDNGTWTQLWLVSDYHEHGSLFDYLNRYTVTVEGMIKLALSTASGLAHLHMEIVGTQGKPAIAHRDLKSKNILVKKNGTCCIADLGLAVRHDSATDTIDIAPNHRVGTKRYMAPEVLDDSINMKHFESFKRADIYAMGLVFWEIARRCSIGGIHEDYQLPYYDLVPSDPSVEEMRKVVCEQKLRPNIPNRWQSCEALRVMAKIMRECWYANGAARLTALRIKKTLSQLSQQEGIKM
# Experiment: Inhibition of TGF-beta-induced ALK5 in human HaCaT cells assessed as p3TP-luciferase activity
# Type: cell-based
structure (smiles),measurement,value
Cc1cccc(-c2sc(NCc3cccc(C(N)=O)c3)nc2-c2ccc3nccnc3c2)n1,Activity,Dose-dependent effect
